Experimental data from patent US7825155B2, “Oxindole derivative as feeding control agent” (priority 2005, dated 2010).

Assays:
[1] = target: T1, human GHSR (growth hormone secretagogue receptor) (Homo sapiens, UniProt Q92847); type: cell-based; settings: 1 μM compound, 10 nM Ghrelin, human GHSR CHO-K1 cells
T1 construct: host or cells: CHO-K1
Method: Assessment of Ghrelin Antagonism Using Human GHSR Stably Expressing Cells
By using cells wherein human GHSR (growth hormone secretagogue receptor) is stably expressed, the effects of compounds of the Examples on elevation of cellular calcium ion concentrations were evaluated when endogenous ligand Ghrelin was added to the cells.
Human GHSR stably expressing CHO-K1 cells (EUROSCREEN) were seeded on 96-well assay plate (Black plate, Clear Bottom (Corning)) in 2×10^4 cells/100 μl/well, and incubated in cell culture device for 1 day at 37° C. under 5% CO2. […]
Ghrelin was combined with an equal amount of the test compound which was prepared with Hanks/Hepes (pH7.4) in a concentration of 10-times of the final concentration, and the mixture was added to the cells in 50 μl/well. Immediately after that, excitation wavelength in 488 nm was measured by FLIPR (Molecular Devices) 80 times at 1 second interval. Ghrelin antagonistic ratio (%) of the compound in the concentration of 1 μM was calculated according to the following equation wherein the values of fluorescence intensity means those obtained by deducting the minimum value from the maximum value. […]
A: Fluorescence intensity in case of adding 1 μM of the compound and 10 nM of Ghrelin
B: Fluorescence intensity in case of no addition of the compound and Ghrelin
C: Fluorescence intensity in case of adding only 10 nM of Ghrelin

[2] = test system: Ghrelin-induced feeding increasing mice; assay: Assessment of feeding in mice (Ghrelin-induced feeding increasing mice); type: in vivo; settings: ICR mice, compound i.p. 12.5, 25, 50 mg/kg, Ghrelin 250 nmol/kg i.v., 1, 2 and 4 hours
Method: Assessment of Feeding in Mice
The effects of compounds of the Examples on the feeding amount in intraperitoneally administering the compound were evaluated using Ghrelin-induced feeding increasing mice.
ICR mice (male, 7-week-old, Charles River Laboratories) were fed in 5 mice in each cage. Food (CE-2, Oriental Yeast Co., Ltd.) and sterile tap water were intaken freely.
ICR mice were intraperitoneally administered the compound (12.5, 25, 50 mg/kg) miscible in 10% polyethylene glycol #400, and immediately after that, intravenously administered Ghrelin (250 nmol/kg) dissolved in saline.
The food weight was measured 4 times in total: just before the administration of Ghrelin, and 1, 2 and 4 hours after the administration. The inhibition ratio was calculated according to the following equation and the integrated feeding amount until each measuring time point. Each treatment group consisted of 10 mice.
Inhibition ratio (%)=(B−C)/(B−A)×100
A: Feeding amount (g) in group administered with only vehicle
B: Feeding amount (g) in group administered with only Ghrelin
C: Feeding amount (g) in group administered with Ghrelin and test compound

T1 sequence (Q92847 whole entry): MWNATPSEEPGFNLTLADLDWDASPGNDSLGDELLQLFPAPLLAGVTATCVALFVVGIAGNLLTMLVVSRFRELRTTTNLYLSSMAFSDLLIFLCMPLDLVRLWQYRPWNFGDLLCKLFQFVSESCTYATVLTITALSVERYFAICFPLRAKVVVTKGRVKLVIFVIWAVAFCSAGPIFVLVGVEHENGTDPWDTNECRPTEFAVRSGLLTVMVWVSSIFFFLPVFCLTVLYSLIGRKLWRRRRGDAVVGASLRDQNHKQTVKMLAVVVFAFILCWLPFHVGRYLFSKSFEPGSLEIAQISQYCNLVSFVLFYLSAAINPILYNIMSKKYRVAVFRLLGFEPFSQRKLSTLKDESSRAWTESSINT

SMILES	Ghrelin antagonistic ratio [1] [%]	Inhibition ratio of feeding amount, maximum [2] [%]
CCN(CC)[C@H]1C[C@H](CN2C(=O)C(O)(c3ccc(Cl)cc3Cl)c3c2cc(C(N)=O)cc3C(F)(F)F)C1.Cl (stereo partly drawn) [Example 1, 3-(2,4-dichlorophenyl)-1-[trans-3-(diethylamino)-cyclobutylmethyl]-4-trifluoromethyl-3-hydroxy-2-oxoindoline-6-carboxamide Hydrochloride]	82	110
CCN(CC)[C@H]1C[C@H](CN2C(=O)C(O)(c3ccc(Cl)cc3Cl)c3c2cc(-c2ncco2)cc3C(F)(F)F)C1 (stereo partly drawn) [Example 14, 3-(2,4-dichlorophenyl)-1-[trans-3-(diethylamino)-cyclobutylmethyl]-4-trifluoromethyl-3-hydroxy-6-(2-oxazolyl)-1,3-dihydro-2H-indol-2-one]	74	–
